Assay results taken from US10919943B2, “Mutant proteins enabling agrochemical control of plant gene expression” (The Regents of the University of California, priority 2016, dated 2021).

Key:
pUAS_GFP_mandi = assay: Mandipropamid control of transcription, pUAS_GFP_mandi transient assay, anti-GFP Western blot; assay type: in vivo, N. benthamiana; settings: 50 μM mandipropamid, 24 hours; FIG. 14
Method: To establish if the orthogonal mandipropamid response module could be used to control transcriptional responses in vivo, we designed an experimental system where PYR1*^-MANDI was fused to the GAL4 AD, and HAB1* fused to its BD. Nuclear export sequences were added to the BD-HAB1* component to reduce its access to the nucleus in the absence of mandipropamid and thereby reduce background transcription from the UAS. The constructs were assembled into a plant transformation vector along with a GAL4-responsive UAS in front of a CaMV minimal promoter driving GFP. The plant transformation vector used was a derivative of pCB308 (Xiang, Han, Lutziger, Wang, & Oliver, 1999) in which a kanamycin resistance marker cassette replaces the vector's centrally located uidA and bar expression cassettes. […]
The resultant construct (pUAS_GFP_mandi) was tested using transient assays in N. benthamiana, as described above. […] 24 hours later, leaf tissue was collected, frozen in liquid N2, and homogenized by bead beating using Precellys instrument (Bertin Technologies), for 6000 rpm for 30 seconds and then resuspended in SDS sample buffer containing protease inhibitor, separated by SDS-PAGE, electro-blotted onto nitrocellulose membrane and detected using an anti-GFP antibody as described in Example 4 above.

[1] = tested on: 35S::PYR1^MANDI transgenic strain; assay: Thermography of leaf temperature after chemical treatment; assay type: in vivo, Arabidopsis thaliana; settings: 1 μM then 10 μM mandipropamid, 24 hours after treatment; FIG. 10
Text: To examine the effects of over-expressing either PYR1*^-MANDI or HAB1* in Arabidopsis thaliana, we made 35S-driven GFP-PYR1*^-MANDI and GFP-HAB1* constructs by cloning the mutant genes into the binary vector pEGAD, and the resultant plasmids were transformed into Agrobacterium tumefaciens. The floral dip method was used to generate T0 transgenic seed for both constructs and the T0 seed was germinated in soil containing glufosinate to select for transgenic T1 plants. The PYR1*^-MANDI T1 plants isolated were grown for ˜5 weeks and then treated with mandipropamid, using comparisons to wild type Columbia plants and a previously constructed 35S::PYR1^MANDI transgenic strain as controls. The treated plants were thermographed 24 hours after chemical applications to examine leaf temperature, which increases after ABA responses are activated, due to reduced transpiration. To examine different mandipropamid concentrations, the plants were first treated with 1 μM mandipropamid and then 3 days later were treated again with 10 μM mandipropamid.

wild type HAB1 = molecular target: T1, wild type HAB1 (Arabidopsis thaliana, UniProt O49686+Q9CAJ0, A160V/F108A/F159V/K59R/M158I/S122G/T162D/V81I/Y58H); assay: In vitro pull down assay with recombinant 6×-His receptor and GST-PP2C; assay type: binding; settings: 10 μM mandipropamid; FIG. 8
T1 construct: made in house; host or cells: E. coli BL21 [DE3]pLysS
Text: To characterize the orthogonal orthogonal module biochemically, we produced recombinant forms of 6×-His-PYR1*^-MANDI, 6×-His-PYR1, GST-HAB1*, and GST-HAB1 in E. coli, as described above, and tested wild type and orthogonal receptors for their ability to inhibit GST-HAB1 activity in vitro, as well as their physical interactions with one another using pull-down assays. To characterize PYR1*^-MANDI and HAB1* in vitro, we cloned PYR1*^-MANDI into pET28 to generate a 6×-His tagged receptor and cloned HAB1* into pGEX-4T-1 to create a GST-fusion protein. Recombinant 6×-His-PYR1*^-MANDI and GST-HAB1* were prepared, as described above in example 1C, and used in experiments with previously prepared 6×-His-PYR1 and GST-HAB1. To conduct pull down assays, the specified recombinant receptor and PP2C (20 and 140 μg respectively), were combined in 500 μl PP2C assay buffer (100 mM Tris-HCl (pH 7.9), 100 mM NaCl, 1 mM MnCl2, 1% 13-ME and 0.3% BSA) containing either 10 μM ABA, 10 μM mandipropamid or 1% DMSO carrier solvent as a negative control. The final protein concentrations in the reactions are 1.6 μM receptor and 3.4 μM PP2C. The reactions were incubated for 90 minutes at room temperature (RT) and 20 μl of PrepEase (USB) His-tagged protein purification resin (20 mg) was added. The resin and reaction mixtures were incubated for 30 minutes at RT with gentle shaking at 5 minute intervals. The resin was washed five times and 100 μl of SDS-PAGE buffer was added and boiled for 5 minutes. After centrifugation 20 μl of supernatant was analyzed by SDS-PAGE.

T1 sequence (Q9CAJ0 23-511, one chain of several): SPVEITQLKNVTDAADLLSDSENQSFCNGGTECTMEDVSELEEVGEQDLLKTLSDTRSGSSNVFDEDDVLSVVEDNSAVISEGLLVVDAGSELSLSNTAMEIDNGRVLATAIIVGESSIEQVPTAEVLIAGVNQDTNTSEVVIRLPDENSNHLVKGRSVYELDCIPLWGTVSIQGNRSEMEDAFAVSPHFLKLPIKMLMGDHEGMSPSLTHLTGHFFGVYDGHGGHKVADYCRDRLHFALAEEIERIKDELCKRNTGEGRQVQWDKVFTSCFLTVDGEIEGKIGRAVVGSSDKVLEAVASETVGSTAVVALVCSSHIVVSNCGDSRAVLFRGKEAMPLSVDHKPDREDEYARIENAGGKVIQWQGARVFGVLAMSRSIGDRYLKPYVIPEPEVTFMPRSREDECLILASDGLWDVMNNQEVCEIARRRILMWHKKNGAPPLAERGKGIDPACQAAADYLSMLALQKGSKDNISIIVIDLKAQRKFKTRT

Molecule	GFP production (pUAS_GFP_mandi)	leaf temperature [1]	binding to wild type HAB1 (wild type HAB1)
C#CCOc1ccc(CCNC(=O)C(OCC#C)c2ccc(Cl)cc2)cc1OC (stereo not drawn) [mandipropamid]	mandipropamid inducible GFP production	strong increase in leaf temperature	
PYR1*^-MANDI: PYR1 mutant with 9 mutations, most sensitive to mandipropamid (protein, listed as Arabidopsis thaliana) MPSELTPEERSELKNSIAEFHTYQLDPGSCSSLHAQRIHAPPELVWSIVRRFDKPQTHRHFIKSCSVEQNFEMRVGCTRDIIVISGLPANTSTERLDILDDERRVTGASIIGGEHRLTNYKGVTTVHRFEKENRIWTVVLESYVVDMPEGNSEDDTRIVVDDVVKLNLQKLATVAEAMARNSGDGSGSQVT			can bind
